The values that follow come from patent US8937064B2, “Pyrazolo[1,5-a]pyrimidines useful as JAK2 inhibitors” (Vertex Pharmaceuticals Incorporated, priority 2007, dated 2015).

Molecules are shown by their SMILES. A value given as a limit tells only on which side of the number the result lay.

One experiment addresses T1, JAK3 (Homo sapiens, UniProt P52333).
T1 sequence (P52333 1-1124): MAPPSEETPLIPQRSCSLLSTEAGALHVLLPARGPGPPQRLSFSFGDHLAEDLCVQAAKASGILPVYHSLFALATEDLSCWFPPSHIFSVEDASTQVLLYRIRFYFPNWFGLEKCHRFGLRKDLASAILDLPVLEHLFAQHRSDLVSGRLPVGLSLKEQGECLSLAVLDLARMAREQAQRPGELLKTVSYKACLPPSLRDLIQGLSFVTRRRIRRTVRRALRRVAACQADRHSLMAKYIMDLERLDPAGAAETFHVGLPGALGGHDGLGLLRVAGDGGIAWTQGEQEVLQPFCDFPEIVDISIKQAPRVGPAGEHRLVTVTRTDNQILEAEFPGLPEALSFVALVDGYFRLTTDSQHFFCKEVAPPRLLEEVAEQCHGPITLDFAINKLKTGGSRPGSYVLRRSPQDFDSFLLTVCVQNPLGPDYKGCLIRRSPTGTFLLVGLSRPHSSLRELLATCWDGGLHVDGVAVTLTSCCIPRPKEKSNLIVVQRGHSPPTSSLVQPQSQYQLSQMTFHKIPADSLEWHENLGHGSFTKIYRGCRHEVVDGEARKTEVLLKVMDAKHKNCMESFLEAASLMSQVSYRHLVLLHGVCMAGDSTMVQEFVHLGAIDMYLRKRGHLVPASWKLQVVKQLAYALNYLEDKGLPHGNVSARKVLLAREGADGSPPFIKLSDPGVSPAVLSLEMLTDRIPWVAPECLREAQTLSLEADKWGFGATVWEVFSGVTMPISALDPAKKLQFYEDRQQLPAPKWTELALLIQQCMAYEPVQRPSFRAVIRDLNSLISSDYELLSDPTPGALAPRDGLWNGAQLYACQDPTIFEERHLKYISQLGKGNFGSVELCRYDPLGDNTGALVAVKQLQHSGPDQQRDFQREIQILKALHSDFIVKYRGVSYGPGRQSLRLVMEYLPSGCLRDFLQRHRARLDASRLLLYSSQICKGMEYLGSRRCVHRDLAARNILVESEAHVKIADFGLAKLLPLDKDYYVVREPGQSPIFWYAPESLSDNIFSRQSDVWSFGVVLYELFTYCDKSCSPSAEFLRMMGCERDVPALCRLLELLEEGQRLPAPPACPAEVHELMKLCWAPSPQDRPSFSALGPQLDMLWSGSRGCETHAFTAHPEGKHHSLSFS
Nature of the experiment: JAK3 Inhibition Assay. It is filed as biochemical. The note with it: 1 nM JAK3, 1 μM poly(Glu)4Tyr, 5 μM ATP, 25° C., 33P incorporation.

The target in another experiment is JAK-2 enzyme (Homo sapiens, UniProt O60674). Nature of the experiment: JAK2 Inhibition Assay.
JAK-2 enzyme, sequence (O60674 whole entry): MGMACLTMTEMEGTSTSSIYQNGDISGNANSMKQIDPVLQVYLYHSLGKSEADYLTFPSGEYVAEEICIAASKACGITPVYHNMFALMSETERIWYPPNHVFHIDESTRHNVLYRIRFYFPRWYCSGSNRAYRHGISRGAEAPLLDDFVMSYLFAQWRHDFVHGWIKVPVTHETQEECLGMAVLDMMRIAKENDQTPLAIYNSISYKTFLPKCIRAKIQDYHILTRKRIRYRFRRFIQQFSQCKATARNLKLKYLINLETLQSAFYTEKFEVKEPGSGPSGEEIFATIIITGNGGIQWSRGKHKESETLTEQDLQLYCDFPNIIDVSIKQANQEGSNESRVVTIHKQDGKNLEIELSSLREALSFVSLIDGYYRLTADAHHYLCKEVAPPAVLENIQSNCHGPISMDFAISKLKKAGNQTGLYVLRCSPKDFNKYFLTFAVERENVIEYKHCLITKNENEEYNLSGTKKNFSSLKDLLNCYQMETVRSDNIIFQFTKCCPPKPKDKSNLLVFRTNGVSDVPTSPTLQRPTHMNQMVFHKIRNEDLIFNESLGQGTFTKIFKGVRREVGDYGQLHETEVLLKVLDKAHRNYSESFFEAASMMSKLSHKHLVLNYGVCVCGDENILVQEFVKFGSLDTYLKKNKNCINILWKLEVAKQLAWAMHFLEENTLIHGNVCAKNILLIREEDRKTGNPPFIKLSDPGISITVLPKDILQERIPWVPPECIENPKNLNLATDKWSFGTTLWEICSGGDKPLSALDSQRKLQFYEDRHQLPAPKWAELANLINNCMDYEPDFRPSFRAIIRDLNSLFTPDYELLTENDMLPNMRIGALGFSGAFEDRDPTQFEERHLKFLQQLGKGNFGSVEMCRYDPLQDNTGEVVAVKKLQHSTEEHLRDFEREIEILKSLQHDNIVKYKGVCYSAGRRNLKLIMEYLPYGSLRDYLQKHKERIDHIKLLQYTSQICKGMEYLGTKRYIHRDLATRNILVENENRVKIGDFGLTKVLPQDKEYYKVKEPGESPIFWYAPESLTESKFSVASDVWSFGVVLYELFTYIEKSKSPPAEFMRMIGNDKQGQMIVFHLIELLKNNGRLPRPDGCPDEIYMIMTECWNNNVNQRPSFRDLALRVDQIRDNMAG

Description for JAK-2 enzyme: Reactions were carried out in a kinase buffer containing 100 mM HEPES (pH 7.4), 1 mM DTT, 10 mM MgCl2, 25 mM NaCl, and 0.01% BSA. Substrate concentrations in the assay were 5 μM ATP (200 uCi/μmole ATP) and 1 μM poly(Glu)4Tyr. Reactions were carried out at 25° C. and 1 nM JAK3.
To each well of a 96 well polycarbonate plate was added 1.5 μl of a candidate JAK3 inhibitor along with 50 μl of kinase buffer containing 2 μM poly(Glu)4Tyr and 10 μM ATP. This was then mixed and 50 μl of kinase buffer containing 2 nM JAK3 enzyme was added to start the reaction. After 20 minutes at room temperature (25° C.), the reaction was stopped with 50 μl of 20% trichloroacetic acid (TCA) that also contained 0.4 mM ATP. The entire contents of each well were then transferred to a 96 well glass fiber filter plate using a TomTek Cell Harvester. After washing, 60 μl of scintillation fluid was added and ^33P incorporation detected on a Perkin Elmer TopCount.

In the case of `CC(C)OCCOc1nc(N[C@@H](C)c2ccc(F)cc2F)cc(-c2cnn3cccnc23)n1` [Compound 219], the inhibition constant (Ki) was 10 to 100 nM on JAK3 and < 10 nM on JAK-2 enzyme.
Take `C[C@H](Nc1cc(-c2c(N)nn3cccnc23)nc(O)n1)c1ccc(F)cc1` [Compound 161]: the figures for the Ki on JAK3 and at JAK-2 enzyme were 10 to 100 nM and < 10 nM, respectively.
For `COCC(=O)Nc1nc(N[C@@H](C)c2ccc(F)cc2F)cc(-c2cnn3cccnc23)n1` [Compound 187], the results for the Ki at JAK3 and at JAK-2 enzyme were 10 to 100 nM and < 10 nM, respectively.
For `C[C@H](Nc1cc(-c2c(N)nn3cccnc23)nc(N2CCOCC2)n1)c1ccc(F)cc1F` [Compound 106], the Ki on JAK3 is 10 to 100 nM; at JAK-2 enzyme, < 10 nM.
On to `C[C@H](Nc1cc(-c2c(N)nn3cccnc23)nc(OCCN2CCOCC2)n1)c1ccc(F)cc1` [Compound 109], for which the Ki on JAK3 was 10 to 100 nM; at JAK-2 enzyme it was < 10 nM.
As to `C[C@H](Nc1ccnc(-c2cnn3cccnc23)n1)c1ccc(F)cc1` [Compound 224], the Ki was 100 to 500 nM at JAK3 and 10 to 100 nM at JAK-2 enzyme.
Regarding `C[C@H](Nc1cc(-c2c(N)nn3ccc(C(F)(F)F)nc23)ncn1)c1ccc(F)cc1` [Compound 134], the Ki at JAK3 and on JAK-2 enzyme was 10 to 100 nM throughout.
As for `C[C@H](Nc1cc(-c2cnn3cccnc23)nc(OCC2CC2)n1)c1ccc(F)cc1F` [Compound 205], the values for the Ki on JAK3 and at JAK-2 enzyme were 100 to 500 nM and < 10 nM, respectively.
In the case of `Nc1nn2cccnc2c1-c1cc(NCc2csc3ccccc23)ncn1` [Compound 31], the Ki at JAK3 fell in the range of 100 to 500 nM; on JAK-2 enzyme it was 10 to 100 nM.
In the case of `CC(C)Oc1nc(N[C@@H](C)c2ccc(F)cc2F)cc(-c2c(N)nn3cccnc23)n1` [Compound 129], the Ki on JAK3 lay in the range of 100 to 500 nM; on JAK-2 enzyme it was 10 to 100 nM.
For `CC[C@H](Nc1cc(-c2c(N)nn3cccnc23)ncn1)c1ccc(F)cc1Cl` [Compound 82], the results for the Ki at JAK3 and at JAK-2 enzyme were 10 to 100 nM and < 10 nM, respectively.
In the case of `CC(C)=CCOc1nc(N[C@@H](C)c2ccc(F)cc2)cc(-c2c(N)nn3cccnc23)n1` [Compound 152], the Ki on JAK3 and at JAK-2 enzyme was 10 to 100 nM in each case.
As to `Nc1nn2cccnc2c1-c1cc(N[C@@H](CCO)c2ccccc2)nc(N2CCOCC2)n1` [Compound 102], the Ki at JAK3 was 100 to 500 nM; at JAK-2 enzyme it was 10 to 100 nM.
Consider `C[C@H](Nc1cc(-c2cnn3cccnc23)nc(OCC(C)(C)N(C)C)n1)c1ccc(F)cc1F` [Compound 193], for which the Ki on JAK3 is 100 to 500 nM; on JAK-2 enzyme it was < 10 nM.
In the case of `C[C@H](Nc1cc(-c2c(N)nn3cccnc23)nc(OCC2CCC2)n1)c1ccc(F)cc1` [Compound 148], the Ki lay within 100 to 500 nM at JAK3 and 10 to 100 nM at JAK-2 enzyme.
In the case of `C[C@H](Nc1cc(-c2c(N)nn3cccnc23)ncn1)c1ccc(Cl)cc1F` [Compound 81], the Ki is 10 to 100 nM at JAK3 and < 10 nM at JAK-2 enzyme.
The corresponding values for `CCC[C@@H](Nc1cc(-c2c(N)nn3cccnc23)ncn1)c1ccc(F)c(F)c1` [Compound 97] are 100 to 500 nM and 10 to 100 nM.
Turning to `C[C@H](Nc1cc(-c2cnn3cccnc23)nc(OCCN2CCCC2=O)n1)c1ccc(F)cc1F` [Compound 209], the Ki on JAK3 was 10 to 100 nM; on JAK-2 enzyme it was < 10 nM.
As for `CC#CCCOc1nc(N[C@@H](C)c2ccc(F)cc2)cc(-c2c(N)nn3cccnc23)n1` [Compound 155], the Ki was 100 to 500 nM at JAK3 and < 10 nM at JAK-2 enzyme.
The corresponding values for `CC[C@H](Nc1ccnc(-c2cnn3cccnc23)n1)c1ccc(F)c(F)c1` [Compound 225] are 500 to 5000 nM and 10 to 100 nM.
Consider `CC(C)CCCOc1nc(N[C@@H](C)c2ccc(F)cc2)cc(-c2c(N)nn3cccnc23)n1` [Compound 167], for which the Ki on JAK3 is 500 to 5000 nM; at JAK-2 enzyme, 10 to 100 nM.
For `CCN(CC)C(=O)COc1nc(N[C@@H](C)c2ccc(F)cc2F)cc(-c2c(N)nn3cccnc23)n1` [Compound 127], the figures for the Ki on JAK3 and at JAK-2 enzyme were 100 to 500 nM and 10 to 100 nM, respectively.
For `C=C(C)COc1nc(N[C@@H](C)c2ccc(F)cc2)cc(-c2c(N)nn3cccnc23)n1` [Compound 175], the results for the Ki at JAK3 and on JAK-2 enzyme were 100 to 500 nM and < 10 nM, respectively.
With `CC(C)[C@@H](Nc1cc(-c2c(N)nn3cccnc23)nc(S(C)(=O)=O)n1)c1ccc(F)cc1F` [Compound 113], the Ki at JAK3 was in the range of 500 to 5000 nM; at JAK-2 enzyme it was 100 to 500 nM.
`C[C@H](Nc1cc(-c2c(N)nn3cccnc23)nc(OCCCN(C)C)n1)c1ccc(F)cc1` [Compound 154]: the Ki was 10 to 100 nM on JAK3 and < 10 nM at JAK-2 enzyme.
On to `C[C@H](Nc1cc(-c2c(N)nn3cccnc23)nc(N2CC[C@H](F)C2)n1)c1ccc(F)cc1` [Compound 191], for which the Ki on JAK3 lay within 100 to 500 nM; on JAK-2 enzyme, 10 to 100 nM.
The corresponding values for `Nc1nn2cccnc2c1-c1cc(N2CCCC2c2ccccc2)ncn1` (stereo not drawn) [Compound 57] are 10 to 100 nM and < 10 nM.
For `C[C@H](Nc1cc(-c2cnn3cccnc23)nc(NC(=O)CCN2CCCC2=O)n1)c1ccc(F)cc1F` [Compound 185], the figures for the Ki on JAK3 and on JAK-2 enzyme were 100 to 500 nM and < 10 nM, respectively.
Turning to `C[C@H](Nc1cc(-c2c(N)nn3cccnc23)nc(O)n1)c1ccc(F)cc1F` [Compound 131], the figures for the Ki at JAK3 and on JAK-2 enzyme were 10 to 100 nM and < 10 nM, respectively.
For the compound `C[C@H](Nc1cc(-c2cnn3cccnc23)nc(OCC2CCCN(C)C2)n1)c1ccc(F)cc1F` (stereo partly drawn) [Compound 215], the Ki is 10 to 100 nM at JAK3 and < 10 nM at JAK-2 enzyme.
The corresponding values for `CCC#CCOc1nc(N[C@@H](C)c2ccc(F)cc2)cc(-c2c(N)nn3cccnc23)n1` [Compound 162] are 100 to 500 nM and 10 to 100 nM.
In the case of `COc1nc(N[C@@H](C)c2ccc(F)cc2F)cc(-c2c(N)nn3cccnc23)n1` [Compound 132], the Ki on JAK3 and at JAK-2 enzyme was < 10 nM in each case.
With `CCC(C#N)Oc1nc(N[C@@H](C)c2ccc(F)cc2F)cc(-c2cnn3cccnc23)n1` (stereo partly drawn) [Compound 192], the values for the Ki on JAK3 and on JAK-2 enzyme were 10 to 100 nM and < 10 nM, respectively.
As for `C[C@H](Nc1cc(-c2c(N)nn3cc(F)cnc23)ncn1)c1ccc(F)cc1F` [Compound 105], the Ki is 10 to 100 nM at JAK3 and < 10 nM at JAK-2 enzyme.
Consider `C[C@H](Nc1cc(-c2c(N)nn3cccnc23)nc(OCCN2CCCC2=O)n1)c1ccc(F)cc1F` [Compound 128], for which the Ki on JAK3 was 10 to 100 nM; on JAK-2 enzyme it was < 10 nM.
Turning to `C[C@H](Nc1cc(-c2c(N)nn3cccnc23)nc(C2CC2)n1)c1ccc(F)cc1` [Compound 91], the Ki at JAK3 is 10 to 100 nM; at JAK-2 enzyme, < 10 nM.
Consider `C[C@H](Nc1cc(-c2cnn3cccnc23)nc(OCCC2CCCCN2)n1)c1ccc(F)cc1F` (stereo partly drawn) [Compound 198], for which the Ki was 10 to 100 nM on JAK3 and < 10 nM at JAK-2 enzyme.
As for `C[C@H](Nc1cc(-c2cnn3cccnc23)ncn1)c1ccc(F)cc1F` [Compound 117], the Ki was 10 to 100 nM on JAK3 and < 10 nM on JAK-2 enzyme.
Turning to `CC[C@@H](Nc1cc(-c2c(N)nn3cccnc23)ncn1)c1ccc(F)cc1F` [Compound 88], the Ki was 10 to 100 nM at JAK3 and < 10 nM on JAK-2 enzyme.
Regarding `C[C@H](Nc1cc(-c2c(N)nn3cccnc23)nc(OCC2CCCN2)n1)c1ccc(F)cc1F` (stereo partly drawn) [Compound 142], the values for the Ki on JAK3 and at JAK-2 enzyme were 100 to 500 nM and 10 to 100 nM, respectively.
On to `C[C@H](Nc1cc(-c2c(N)nn3cccnc23)nc(OC[C@@H]2CO2)n1)c1ccc(F)cc1` [Compound 163], for which the Ki at JAK3 fell in the range of 500 to 5000 nM; on JAK-2 enzyme, 10 to 100 nM.
Turning to `C[C@H](Nc1cc(-c2cnn3cccnc23)nc(OCCNC(C)(C)C)n1)c1ccc(F)cc1F` [Compound 206], the Ki at JAK3 was 10 to 100 nM; at JAK-2 enzyme, < 10 nM.
Consider `C#CC(CC)Oc1nc(N[C@@H](C)c2ccc(F)cc2)cc(-c2c(N)nn3cccnc23)n1` (stereo partly drawn) [Compound 180], for which the values for the Ki on JAK3 and at JAK-2 enzyme were 100 to 500 nM and < 10 nM, respectively.
Regarding `CSc1nc(N[C@@H](C)c2ccc(F)cc2)cc(-c2c(N)nn3cccnc23)n1` [Compound 92], the figures for the Ki on JAK3 and at JAK-2 enzyme were 10 to 100 nM and < 10 nM, respectively.
The corresponding values for `CCC[C@H](Nc1cc(-c2cnn3cccnc23)ncn1)c1ccc(F)cc1` [Compound 116] are 10 to 100 nM and < 10 nM.

The term Ki denotes a measure of affinity in units of concentration, obtained from inhibition or displacement. Read a high Ki as a looser hold on the target.
